According to patent US9783539B2, “Indoloquinolone compounds as anaplastic lymphoma kinase (ALK) inhibitors” (Jiangsu Ascentage Biomed Development Inc., priority 2014, dated 2017):
pIC50: −log10 of the molar value. Where “and” joins values, the source holds several entries; their conditions need not be identical. Identical values can stand only once. Like-named read-outs stand apart in the source and are kept apart here. Values belong to the compound of their own block, whether it stands above or below them.

Key:
[1] = tested on: Kappas-299 cells containing NPM-ALK fusion protein; experiment: 4-day cell viability assay (CellTiter-Glo), Kappas-299; type: cell-based; conditions: inhibition of cell growth, 4 days, multiple values from independent experiments
Procedure: (§1) The effect of compounds on cell viability was determined in a 4-day proliferation assay. Cells were maintained in RPMI1640 culture medium with 10% FBS at 37° C. and an atmosphere of 5% CO2. […] Cells were seeded in 96-well plates at a density of 3,000-10,000 cells/well in 75 μl of culture medium. Compounds were serially diluted in the appropriate medium, and 75 μl of the diluted compounds were added to the appropriate wells of the cell plate. After the addition of compounds, the cells were incubated at 37° C. in an atmosphere of 5% CO2 for 4 days. Cell viability was determined using the CellTiter-Glo® Luminescent Cell Viability Assay Kit (Promega, Madison, Wis.) (for KARPAS-299 cells) or WST (2-(2-methoxy-4-nitrophenyl)-3-(4-nitrophenyl)-5-(2,4-disulfophenyl)-2H-tetrazolium, monosodium salt) Cell Counting-8 Kit (Dojindo Molecular Technologies, Inc., Rockville, Md.) (for H3122 cells) according to the manufacturers' instructions.
For CellTiter-Glo assay, 100 μl of CellTiter-Glo® Reagent was added to each well, and then the plates were incubated at room temperature for 10-20 minutes. The luminescent signal was measured using a Tecan Infinite M1000 multimode microplate reader (Tecan, Morrisville, N.C.). The readings were normalized to the DMSO-treated cells and the IC50 was calculated by nonlinear regression analysis using the GraphPad Prism 5 software.
Cells were treated for four days and cell growth was determined using a CellTiter-Glo assay.

[2] = target: wild-type human ALK protein (cytoplasmic domain, amino acid 1058-1620, GST-fusion) (Homo sapiens, UniProt Q9UM73); experiment: biochemical; conditions: ALK IC50, wild-type ALK; 100 μM ATP
Chain of wild-type human ALK protein (cytoplasmic domain, amino acid 1058-1620, GST-fusion) (Q9UM73 1058-1620): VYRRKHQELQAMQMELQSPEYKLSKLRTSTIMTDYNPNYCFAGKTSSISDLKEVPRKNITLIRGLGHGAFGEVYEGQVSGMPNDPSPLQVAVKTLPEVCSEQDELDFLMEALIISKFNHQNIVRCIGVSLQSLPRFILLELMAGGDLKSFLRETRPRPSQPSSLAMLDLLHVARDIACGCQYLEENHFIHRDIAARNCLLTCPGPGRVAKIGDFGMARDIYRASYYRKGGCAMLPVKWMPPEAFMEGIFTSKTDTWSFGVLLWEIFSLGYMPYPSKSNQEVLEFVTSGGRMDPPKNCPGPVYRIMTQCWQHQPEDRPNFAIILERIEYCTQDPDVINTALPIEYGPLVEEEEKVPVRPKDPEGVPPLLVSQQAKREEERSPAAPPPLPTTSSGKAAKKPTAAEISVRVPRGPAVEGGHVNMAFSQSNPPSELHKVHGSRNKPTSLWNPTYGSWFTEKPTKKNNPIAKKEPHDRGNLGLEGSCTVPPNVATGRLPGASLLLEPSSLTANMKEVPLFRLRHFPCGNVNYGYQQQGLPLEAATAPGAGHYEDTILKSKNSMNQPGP
Procedure: Kinase activities of all enzymes were assessed using a Lance TR-FRET assay kit from Perkin Elmer Life Sciences (Waltham, Mass.). 2.5 μL of compound solution and 5 μL of protein solution were added into a black low volume 384 well microtiter plate which was incubated for 15 minutes with gentle shaking at room temperature, followed by adding 2.5 μL of fluorescently labeled peptide substrate (Ulight-[sequence]) and ATP mixture solution. The kinase reaction was performed in 50 mM HEPES (pH 7.5) with 1 mM EGTA, 1 mM MgCl2, and 2 mM DTT, 0.01% Tween-20 added right before the assay. […] The reaction was allowed to perform for 90 minutes in dark with gentle shaking at room temperature after which 10 μL of 20 mM EDTA and 2 nM Eu-W1024 anti-phosphotyrosine antibody (PT66) mixture solution in the detection buffer from the manufacturer was added to terminate the reaction and detect the phosphorylation of the peptide substrate. Final mixture was incubated in the dark for 1 hour before the plate was read on a Tecan Infinite M-1000 multi-mode plate reader (Tecan, Durham N.C.) with an excitation wavelength of 320 nm.

[3] = tested on: H3122 non-small cell lung cancer cell line harboring the EML4-ALK fusion gene; experiment: 4-day cell viability assay (WST), H3122; type: cell-based; conditions: Homo sapiens, NCI-H3122, 96 h, 4 days, read-out: IC50 (nM) in Inhibition of Tumor Cell Growth H3122 Cell line
Procedure: as §1
For WST assay, WST-8 reagent was added to each well at a final concentration of 10% (v/v), and then the plates were incubated at 37° C. for 1-2 hours for color development. The absorbance was measured at 450 nm using a SPECTRAmax PLUS plate reader (Molecular Devices, Sunnyvale, Calif.). The readings were normalized to the DMSO-treated cells and the half maximal inhibitory concentration (IC50) was calculated by nonlinear regression analysis using the GraphPad Prism 5 software (GraphPad Software, La Jolla, Calif.).
Cells were treated for four days and cell growth was determined using a WST assay.

[4] = Pharmacokinetic parameters in SD rats, IV and PO; parameters: AUC(0-t): concentration or dose not given beside the values; conditions: Sprague-Dawley (SD), rat, in vivo; for bioavailability: po, read-out: Oral Bioavailability (F)
Excerpt: The pharmacokinetic (PK) parameters in SD rats for selected compounds with intravenous (IV) and oral (PO) administrations are provided in the following table (Table 5).

[5] = intravenous, read-out: AUC0-t IV
[6] = intravenous, read-out: t1/2 IV (converted)
[7] = oral, read-out: t1/2 PO (converted)

pIC50 [2]: 7.69
Compound: C=C(C)c1cc2c(=O)c3c4ccc(C#N)cc4[nH]c3n(C(C)C)c2cc1N1CCN(C)CC1 [ALK-51, 5-isoPropyl-3-(4-methylpiperazin-1-yl)-11-oxo-2-(prop-1-en-2-yl)-6,11-dihydro-5H-indolo[2,3-b]quinoline-8-carbonitrile]
pIC50 ([1]; NPM-ALK, 96 h): 7.15
pIC50 [1]: 7.00

pIC50 [2]: 7.61
Compound: CCOc1cc2c(=O)c3c4ccc(C#N)cc4[nH]c3n(C3CCCC3)c2cc1N1CCN(C)CC1 [ALK-54, 5-Cyclopentyl-2-ethoxy-3-(4-methylpiperazin-1-yl)-11-oxo-6,11-dihydro-5H-indolo[2,3-b]quinoline-8-carbonitrile]
pIC50 ([1]; NPM-ALK, 96 h): 7.20

pIC50 [2]: 8.80
Compound: CC(C)n1c2cc(N3CCN(C)CC3)c(OC(F)F)cc2c(=O)c2c3ccc(C#N)cc3[nH]c21 [ALK-59, 2-(Difluoromethoxy)-5-isopropyl-3-(4-methylpiperazin-1-yl)-11-oxo-6,11-dihydro-5H-indolo[2,3-b]quinoline-8-carbonitrile]
pIC50 ([1]; NPM-ALK, 96 h): 6.35

IC50 [3]: 84 nM
pIC50 [2]: 8.08
Compound: COc1cc2c(=O)c3c4ccc(C#N)cc4[nH]c3n(C3CCC3)c2c(F)c1N1CCC(N2CCOCC2)CC1 [ALK-74, 5-Cyclobutyl-4-fluoro-2-methoxy-3-(4-morpholinopiperidin-1-yl)-11-oxo-6,11-dihydro-5H-indolo[2,3-b]quinoline-8-carbonitrile]
pIC50 ([1]; NPM-ALK, 96 h): 7.01

IC50 [3]: 35.9 nM
pIC50 [2]: 8.44
Compound: COc1cc2c(=O)c3c4ccc(C#N)cc4[nH]c3n(C3CCC3)c2c(F)c1N1CCN(C)CC1 [ALK-75, 5-Cyclobutyl-4-fluoro-2-methoxy-3-(4-methylpiperazin-1-yl)-11-oxo-6,11-dihydro-5H-indolo[2,3-b]quinoline-8-carbonitrile]
pIC50 ([1]; NPM-ALK, 96 h): 7.66

pIC50 [2]: 10.00
Compound: CCc1cc2c(=O)c3c4ccc(C#N)cc4[nH]c3n(C(C)C)c2cc1N1CCNCC1 [ALK-81, 2-Ethyl-5-isopropyl-11-oxo-3-(piperazin-1-yl)-6,11-dihydro-5H-indolo[2,3-b]quinoline-8-carbonitrile]
pIC50 ([1]; NPM-ALK, 96 h): 6.36

pIC50 [2]: 8.64
Compound: CCc1cc2c(=O)c3c4ccc(C#N)cc4[nH]c3n(C(C)C)c2cc1N1CCOCC1 [ALK-82, 2-Ethyl-5-isopropyl-3-morpholino-11-oxo-6,11-dihydro-5H-indolo[2,3-b]quinoline-8-carbonitrile]
pIC50 ([1]; NPM-ALK, 96 h): 7.34

pIC50 [2]: 9.59
Compound: CCc1cc2c(=O)c3c4ccc(C#N)cc4[nH]c3n(C(C)C)c2cc1C1CCNCC1 [CJ-2204, 2-Ethyl-5-isopropyl-11-oxo-3-(piperidin-4-yl)-6,11-dihydro-5H-indolo[2,3-b]quinoline-8-carbonitrile]
pIC50 ([1]; NPM-ALK, 96 h): 6.11

AUC(0-t) [4, 5]: 574 ng·h/mL
Cmax ([4]; intravenous, read-out: Cmax IV): 169 ng/mL
Tmax ([4]; intravenous, read-out: Tmax IV): 0.083 h
half-life [4, 6]: 4.78 h
AUC(0-t) ([4]; oral, read-out: AUC0-t PO): 2060 ng·h/mL
Cmax ([4]; oral, read-out: Cmax PO): 208 ng/mL
Tmax ([4]; oral, read-out: Tmax PO): 5.33 h
half-life [4, 7]: 4.08 h
bioavailability [4]: 70.6%
Compound: COc1cc2c(=O)c3c4ccc(C#N)cc4[nH]c3n(C(C)C)c2c(F)c1C1CCN(C)CC1 [CJ-2212, 4-Fluoro-5-isopropyl-2-methoxy-3-(1-methylpiperidin-4-yl)-11-oxo-6,11-dihydro-5H-indolo[2,3-b]quinoline-8-carbonitrile]

AUC(0-t) [4, 5]: 2340 ng·h/mL
Cmax ([4]; intravenous, read-out: Cmax IV): 959 ng/mL
Tmax ([4]; intravenous, read-out: Tmax IV): 0.083 h
half-life [4, 6]: 4.71 h
AUC(0-t) ([4]; oral, read-out: AUC0-t PO): 9640 ng·h/mL
Cmax ([4]; oral, read-out: Cmax PO): 1170 ng/mL
Tmax ([4]; oral, read-out: Tmax PO): 0.67 h
half-life [4, 7]: 3.86 h
bioavailability [4]: 81.5%
Compound: COc1cc2c(=O)c3c4ccc(C#N)cc4[nH]c3n(C(C)C)c2c(F)c1C1CCN(C2COC2)CC1 [CJ-2224, 4-Fluoro-5-isopropyl-2-methoxy-3-(1-(oxetan-3-yl)piperidin-4-yl)-11-oxo-6,11-dihydro-5H-indolo[2,3-b]quinoline-8-carbonitrile]

AUC(0-t) [4, 5]: 1110 ng·h/mL
Cmax ([4]; intravenous, read-out: Cmax IV): 212 ng/mL
Tmax ([4]; intravenous, read-out: Tmax IV): 0.222 h
half-life [4, 6]: 4.54 h
AUC(0-t) ([4]; oral, read-out: AUC0-t PO): 2340 ng·h/mL
Cmax ([4]; oral, read-out: Cmax PO): 225 ng/mL
Tmax ([4]; oral, read-out: Tmax PO): 5.33 h
half-life [4, 7]: 4.31 h
bioavailability [4]: 41.7%
Compound: COc1cc2c(=O)c3c4ccc(C#N)cc4[nH]c3n(C(C)C)c2c(F)c1C1CCN(C(C)C)CC1 [CJ-2225, 4-Fluoro-5-isopropyl-3-(1-isopropylpiperidin-4-yl)-2-methoxy-11-oxo-6,11-dihydro-5H-indolo[2,3-b]quinoline-8-carbonitrile]

AUC(0-t) [4, 5]: 1000 ng·h/mL
Cmax ([4]; intravenous, read-out: Cmax IV): 296 ng/mL
Tmax ([4]; intravenous, read-out: Tmax IV): 0.083 h
half-life [4, 6]: 4.37 h
AUC(0-t) ([4]; oral, read-out: AUC0-t PO): 2370 ng·h/mL
Cmax ([4]; oral, read-out: Cmax PO): 230 ng/mL
Tmax ([4]; oral, read-out: Tmax PO): 4.67 h
half-life [4, 7]: 4.99 h
bioavailability [4]: 47.3%
Compound: COc1cc2c(=O)c3c4ccc(C#N)cc4[nH]c3n(C(C)C)c2c(F)c1C1CCN(C2CCOCC2)CC1 [CJ-2226, 4-Fluoro-5-isopropyl-2-methoxy-11-oxo-3-(1-(tetrahydro-2H-pyran-4-yl)piperidin-4-yl)-6,11-dihydro-5H-indolo[2,3-b]quinoline-8-carbonitrile]

The remaining lines, values behind:

Compound: COc1cc2c(=O)c3c4ccc(C#N)cc4[nH]c3n(C)c2cc1N1CCC(N2CCOCC2)CC1 [ALK-22, 2-Methoxy-5-methyl-3-(4-morpholinopiperidin-1-yl)-11-oxo-6,11-dihydro-5H-indolo[2,3-b]quinoline-8-carbonitrile]
pIC50 ([1]; NPM-ALK, 96 h): 7.04
pIC50 [2]: 6.18

Compound: COc1cc2c(=O)c3c4ccc(C#N)cc4[nH]c3n(C)c2cc1N1CCN(C)CC1 [ALK-23, 2-Methoxy-5-methyl-3-(4-methylpiperazin-1-yl)-11-oxo-6,11-dihydro-5H-indolo[2,3-b]quinoline-8-carbonitrile]
pIC50 [2]: 6.51

Compound: COc1cc2c(=O)c3c4ccc(C#N)cc4[nH]c3n(C(C)C)c2cc1N1CCC(N2CCOCC2)CC1 [ALK-25, 5-isoPropyl-2-methoxy-3-(4-morpholinopiperidin-1-yl)-11-oxo-6,11-dihydro-5H-indolo[2,3-b]quinoline-8-carbonitrile]
pIC50 ([1]; NPM-ALK, 96 h): 6.86
pIC50 [2]: 7.75

Compound: CCC(CC)n1c2cc(N3CCN(C)CC3)c(OC)cc2c(=O)c2c3ccc(C#N)cc3[nH]c21 [ALK-40, 2-Methoxy-3-(4-methylpiperazin-1-yl)-11-oxo-5-(pentan-3-yl)-6,11-dihydro-5H-indolo[2,3-b]quinoline-8-carbonitrile]
pIC50 ([1]; NPM-ALK, 96 h): 6.38
pIC50 [2]: 7.53

Compound: COc1cc2c(=O)c3c4ccc(C#N)cc4[nH]c3n(CC(C)(C)C)c2cc1N1CCN(C)CC1 [ALK-43, 2-Methoxy-3-(4-methylpiperazin-1-yl)-5-neopentyl-11-oxo-6,11-dihydro-5H-indolo[2,3-b]quinoline-8-carbonitrile]
pIC50 ([1]; NPM-ALK, 96 h): 6.58
pIC50 [1]: 6.58
pIC50 [2]: 7.55

Compound: CCc1cc2c(=O)c3c4ccc(C#N)cc4[nH]c3n(C3CCC3)c2cc1N1CCN(C)CC1 [ALK-45, 5-cyclobutyl-2-ethyl-3-(4-methylpiperazin-1-yl)-11-oxo-6,11-dihydro-5H-indolo[2,3-b]quinoline-8-carbonitrile]
pIC50 ([1]; NPM-ALK, 96 h): 7.46
pIC50 [1]: 7.21
pIC50 [2]: 8.74 and 8.29

Compound: C=Cc1cc2c(=O)c3c4ccc(C#N)cc4[nH]c3n(C(C)C)c2cc1N1CCN(C)CC1 [ALK-46, 5-isoPropyl-3-(4-methylpiperazin-1-yl)-11-oxo-2-vinyl-6,11-dihydro-5H-indolo[2,3-b]quinoline-8-carbonitrile]
pIC50 ([1]; NPM-ALK, 96 h): 7.22
pIC50 [1]: 6.99
pIC50 [2]: 8.74 and 8.82

Compound: CCc1cc2c(=O)c3c4ccc(C#N)cc4[nH]c3n(C3CCCC3)c2cc1N1CCN(C)CC1 [ALK-48, 5-Cyclopentyl-2-ethyl-3-(4-methylpiperazin-1-yl)-11-oxo-6,11-dihydro-5H-indolo[2,3-b]quinoline-8-carbonitrile]
pIC50 ([1]; NPM-ALK, 96 h): 7.15
pIC50 [1]: 7.08
pIC50 [2]: 7.82

Compound: CCc1cc2c(=O)c3c4ccc(C#N)cc4[nH]c3n(CC)c2cc1N1CCN(C)CC1 [ALK-49, 2,5-Diethyl-3-(4-methylpiperazin-1-yl)-11-oxo-6,11-dihydro-5H-indolo[2,3-b]quinoline-8-carbonitrile]
pIC50 ([1]; NPM-ALK, 96 h): 6.50
pIC50 [1]: 6.26
pIC50 [2]: 8.72 and 8.55
